Data reported in ChEMBL document CHEMBL1130503, “Synthesis and antibacterial activity of some thio trinems” (Bioorg Med Chem Lett, 1997).
≈ marks a conversion by molar mass, not a printed value.

Columns and labels:
[1] = test system: Bacteroides fragilis; assay: The compound was tested in vitro for the antibacterial activity against Bacteroides fragilis 2017 strain, activity expressed as MIC; type: functional
[2] = test system: Clostridium perfringens; assay: The compound was tested in vitro for the antibacterial activity against Clostridium perfringens 615E strain, activity expressed as MIC; type: functional
[3] = test system: Escherichia coli; assay: The compound was tested in vitro for the antibacterial activity against Escherichia coli 1919 beta-lactamase producing strain, activity expressed as MIC; type: functional
[4] = test system: Staphylococcus aureus; assay: The compound was tested in vitro for the antibacterial activity against Staphylococcus aureus 663E strain, activity expressed as MIC; type: functional
[5] = test system: Staphylococcus aureus; assay: The compound was tested in vitro for the antibacterial activity against Staphylococcus aureus 853E beta-lactamase producing strain, activity expressed as MIC; type: functional
[6] = test system: Escherichia coli; assay: The compound was tested in vitro for the antibacterial activity against Escherichia coli 1850E strain, activity expressed as MIC.; type: functional
[7] = test system: renal dehydropeptidase I (DHP-I); assay: Tested for Biological half life in human plasma (stability to human renal dehydropeptidase I,DHP-I).; type: ADME, cell-free
[8] = test system: renal dehydropeptidase I (DHP-I); assay: Biological half life in human plasma (stability to human renal dehydropeptidase I,DHP-I).; type: ADME, cell-free
[9] = Clostridium perfringens, read-out: MIC

Row | Compound | MIC ([1]; Bacteroides fragilis) [µg/mL] | MIC [2, 9] [µg/mL] | MIC ([3]; Escherichia coli) [µg/mL] | MIC ([4]; Staphylococcus aureus) [µg/mL] | MIC ([5]; Staphylococcus aureus) [µg/mL] | MIC ([6]; Escherichia coli) [µg/mL] | half-life [7] [min] | half-life [8] [min] | MIC [1] [µg/mL] | MIC [2] [µg/mL] | MIC [3] [µg/mL] | MIC [4] [µg/mL] | MIC [5] [µg/mL] | MIC [6] [µg/mL]
1 | C[C@@H](O)[C@H]1C(=O)N2C(C(=O)[O-])=C3CCCS[C@@H]3[C@H]12.[Na+] | 0.25 | 30 | 0.5 | 1 | 1 | 0.5 | – | – | – | – | – | – | – | –
2 | CS[C@H]1CCS[C@H]2C1=C(C(=O)[O-])N1C(=O)[C@H]([C@@H](C)O)[C@@H]21.[Na+] | 0.2 | ≤ 10 | 1 | 0.2 | 0.5 | 2 | 386 | – | – | – | – | – | – | –
3 | C=CCOC(=O)C1=C2SCCC[C@H]2[C@@H]2[C@@H]([C@@H](C)O)C(=O)N12 | – | 500 (≈ 1620 µM) | 2 (≈ 6.46 µM) | 1 (≈ 3.23 µM) | 1 (≈ 3.23 µM) | 1 (≈ 3.23 µM) | 10 | – | – | – | – | – | – | –
4 | C[C@@H](O)[C@H]1C(=O)N2C(C(=O)[O-])=C3CCSCC3[C@H]12.[K+] (stereo in doubt; 15a) | – | – | 2 | 1 | 1 | 4 | – | 12 | 0.12 | 1000 | – | – | – | –
5 | C[C@@H](O)[C@H]1C(=O)N2C(C(=O)[O-])=C3CCSCC3[C@H]12.[K+] (stereo in doubt; 15b) | – | – | – | – | – | – | < 7 | – | 0.5 | 250 | 1 | 1 | 0.5 | 4
6 | C[C@@H](O)[C@H]1C(=O)N2C(C(=O)O)=C(SCCNC=N)C[C@H]12 [IMIPENEM ANHYDROUS] | 0.12 (≈ 0.401 µM) | 30 (≈ 100 µM) | 0.5 (≈ 1.67 µM) | 0.06 (≈ 0.2 µM) | 0.12 (≈ 0.401 µM) | 0.5 (≈ 1.67 µM) | – | – | – | – | – | – | – | –
